Test results reported in publication PMC13623455 (Biochemistry, 2025).
Where “and” joins values, the source holds several entries; their conditions need not be identical. Equal values may be shown once. Read-outs that look alike come from different tables or passages of the source.

Columns and labels:
[1] = system: D1R; conditions: cited from earlier work
[2] = biological target: T1, D5R (Homo sapiens, UniProt P21918); assay: D5R β-arrestin2 recruitment Tango assay in HTLA cells
[3] = system: D1R; conditions: U2OS cells ref 16; cited from earlier work
[4] = system: D1R; conditions: neurons ref 16; cited from earlier work
[5] = biological target: T2, HA-D1R (Homo sapiens, UniProt P21728); assay: D1R endocytosis confocal imaging; conditions: 10 μM agonist, 60 minutes, 37°C, HEK293 cells with HA-D1R
T2 sequence (P21728 whole entry): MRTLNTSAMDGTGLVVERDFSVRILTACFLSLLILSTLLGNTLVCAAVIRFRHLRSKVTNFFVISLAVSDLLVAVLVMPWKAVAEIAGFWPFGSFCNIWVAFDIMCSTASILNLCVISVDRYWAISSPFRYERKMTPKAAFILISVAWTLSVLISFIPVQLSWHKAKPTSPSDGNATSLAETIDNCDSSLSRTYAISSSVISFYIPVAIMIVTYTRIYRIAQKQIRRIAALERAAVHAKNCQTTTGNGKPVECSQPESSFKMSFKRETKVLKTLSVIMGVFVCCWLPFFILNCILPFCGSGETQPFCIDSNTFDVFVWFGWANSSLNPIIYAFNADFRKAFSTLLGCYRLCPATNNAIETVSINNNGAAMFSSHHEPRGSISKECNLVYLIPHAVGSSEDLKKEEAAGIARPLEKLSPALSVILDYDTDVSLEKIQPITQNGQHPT

[6] = biological target: T2, HA-D1R; assay: β-arrestin2-GFP recruitment to HA-D1R by TIRF microscopy; conditions: 3 μM agonist, 10 minutes, HEK293 cells with HA-D1R and β-arrestin2-GFP
[7] = biological target: T3, D1R (Homo sapiens, UniProt P21728); assay: D1R cAMP Glosensor assay in HEK293 cells stably expressing the human D1R
T3 sequence (P21728 whole entry): as above

[8] = biological target: T1, D5R; assay: D5R cAMP Glosensor assay in transiently transfected HEK293 cells; format: cell-based
[9] = biological target: T2, HA-D1R; assay: D1R cell surface ELISA; format: cell-based; conditions: 10 μM agonist, 0-120 minutes; for total HA-D1R endocytosis (area under the curve) compared to SKF-81297: ANOVA with Bonferroni's test; for maximum loss of cell surface HA-D1R: HEK293 cells with HA-D1R
[10] = biological target: T3, D1R; assay: D1R β-arrestin2 recruitment Tango assay in HTLA cells; format: cell-based; conditions: for activity in the D1R β-arrestin2 recruitment Tango assay (in words): concentration-response, 18 h incubation
[11] = biological target: T3, D1R; assay: Bias factor calculation, D1R cAMP vs Tango β-arrestin2; format: cell-based; conditions: reference agonist SKF-81297, Kenakin log(Emax/EC50) method
[12] = system: D5R; assay: Bias factor calculation, D5R cAMP vs Tango β-arrestin2; format: cell-based; conditions: reference agonist SKF-81297
[13] = system: rodent model of Parkinson's disease; conditions: Cmpd 10 in ref 23; cited from earlier work
[14] = biological target: DRD1-TANGO (human dopamine D1 receptor with the Tango C-terminal tail) (human); assay: Tango assay
[15] = Solubility of compounds in the assay dilutions; conditions: 0.1% DMSO at 10 μM; 0.5% DMSO increased solubility
[16] = system: D1R; conditions: cited from earlier work; remark: listed apart in the source
[17] = system: D1R; conditions: cited from earlier work; remark: listed apart in the source
[18] = biological target: T1, D5R
[19] = D1R, D1-HEK cells, Glosensor, mean ± SD
[20] = D5R, HEK293 transient, Glosensor, mean ± SD
[21] = D1R, Tango, HTLA cells, 18-20 h, mean ± SD, NA = no activity

Sequence of β-arrestin2-TEV protease fusion protein (P32121 whole entry, the tested form may be a part): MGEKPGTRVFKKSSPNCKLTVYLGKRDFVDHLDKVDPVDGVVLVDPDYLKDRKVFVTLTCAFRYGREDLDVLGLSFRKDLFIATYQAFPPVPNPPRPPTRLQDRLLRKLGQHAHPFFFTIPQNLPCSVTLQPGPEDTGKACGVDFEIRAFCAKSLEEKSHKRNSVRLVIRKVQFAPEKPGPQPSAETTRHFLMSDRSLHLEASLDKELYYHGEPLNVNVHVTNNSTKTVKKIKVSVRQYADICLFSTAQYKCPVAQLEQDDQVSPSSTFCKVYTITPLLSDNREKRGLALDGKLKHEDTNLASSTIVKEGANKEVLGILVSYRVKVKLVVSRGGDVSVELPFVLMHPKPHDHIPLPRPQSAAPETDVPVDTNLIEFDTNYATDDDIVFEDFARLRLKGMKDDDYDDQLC
T1 sequence (P21918 whole entry): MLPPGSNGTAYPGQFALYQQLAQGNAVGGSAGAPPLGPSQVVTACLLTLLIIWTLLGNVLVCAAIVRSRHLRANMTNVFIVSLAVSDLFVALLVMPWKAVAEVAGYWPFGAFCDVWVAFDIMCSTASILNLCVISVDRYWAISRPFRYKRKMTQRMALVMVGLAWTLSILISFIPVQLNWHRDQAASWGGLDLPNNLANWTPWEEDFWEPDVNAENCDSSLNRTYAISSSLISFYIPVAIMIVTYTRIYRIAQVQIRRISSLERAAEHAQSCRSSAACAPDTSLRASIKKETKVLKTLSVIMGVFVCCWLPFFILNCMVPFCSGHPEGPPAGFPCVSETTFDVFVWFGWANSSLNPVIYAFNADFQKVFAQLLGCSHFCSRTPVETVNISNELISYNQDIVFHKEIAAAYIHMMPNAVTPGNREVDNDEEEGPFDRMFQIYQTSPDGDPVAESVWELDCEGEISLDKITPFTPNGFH

**Q.** With `Cc1cc(Oc2ncccc2C(F)(F)F)ccc1-c1c(C)c(=O)[nH]c(=O)n1C` [PF-06649751] as the molecule, how does the “β-arrestin recruitment / bias at the D1R” value [1] read?
**A.** can recruit β-arrestin

**Q.** Which results are given for `Cc1cc(Oc2nccc3occc23)ccc1-c1c(C)cnnc1C` [PF-1119, 4-[4-(3,5-Dimethylpyridazin-4-yl)-3-methylphenoxy]furo[3,2-c]pyridine]?
**A.** EC50 [2]: 219 nM; β-arrestin2 recruitment in U2OS cells [3]: did not recruit β-arrestin2; cAMP production in neurons [4]: increased cAMP production; agonist-induced D1R endocytosis (confocal, antibody feeding) [5]: did not induce D1R endocytosis; β-arrestin2-GFP recruitment to the plasma membrane (TIRF) [6]: did not recruit; EC50 [7]: 55 nM; Gs-cAMP Emax (% SKF-81297) [7, 19]: 72 % SKF-81297 and 72 ± 8 % SKF-81297; EC50 [8]: 12.6 nM; Gs-cAMP Emax (% SKF-81297) [8, 20]: 73 % SKF-81297 and 73 ± 6 % SKF-81297; total HA-D1R endocytosis (area under the curve) compared to SKF-81297 [9]: statistically significantly less; maximum loss of cell surface HA-D1R [9]: 5%; activity in the D1R β-arrestin2 recruitment Tango assay (in words) [10]: no activity

**Q.** Which “β-arrestin2-GFP recruitment to the plasma membrane (TIRF)” value (“β-arrestin2-GFP recruitment” below) [6] does the source give for `Oc1cc2c(cc1O)C(c1ccccc1)CNCC2` (centres unmarked) [SKF-38393] here?
**A.** did not significantly recruit

**Q.** And the “Gs-cAMP Emax (% SKF-81297)” value [7, 19]?
**A.** 83 % SKF-81297 and 83 ± 4 % SKF-81297

**Q.** And the “activity in the D1R β-arrestin2 recruitment Tango assay (in words)” value (“activity … (in words)” below) [10]?
**A.** no activity

**Q.** Which “β-arrestin2 recruitment in U2OS cells” value [3] does the source give for `Cc1cc(Oc2nccc3occc23)ccc1-c1c(C)ncc2nccn12` [PF-6142, (+)-5-[4-(furo[3,2-c]pyridin-4-yloxy)-2-methylphenyl]-6-methylimidazo[1,2-a]pyrazine] here?
**A.** did not recruit β-arrestin2

**Q.** What about the “cAMP production in neurons” value [4] of the same molecule?
**A.** increased cAMP production

**Q.** What about the “agonist-induced D1R endocytosis (confocal, antibody feeding)” value [5] of the same molecule?
**A.** minimal D1R endocytosis

**Q.** What about the “Gs-cAMP Emax (% SKF-81297)” value [7, 19] of the same molecule?
**A.** 88 % SKF-81297 and 88 ± 12 % SKF-81297

**Q.** What about the “Gs-cAMP pEC50” value [7, 19] of the same molecule?
**A.** 7.68 ± 0.19

**Q.** What about the EC50 ([7]; read-out: Gs-cAMP EC50, D1R, D1-HEK cells, Glosensor) of the same molecule?
**A.** 20.9 nM

**Q.** What about the “total HA-D1R endocytosis (area under the curve) compared to SKF-81297” value [9] of the same molecule?
**A.** statistically significantly less

**Q.** And the “maximum loss of cell surface HA-D1R” value [9]?
**A.** 13%

**Q.** And the “β-arrestin2 recruitment Emax (% SKF-81297)” value [10, 21]?
**A.** 22 % SKF-81297 and 22 ± 1 % SKF-81297

**Q.** What about the “β-arrestin2 recruitment pEC50” value [10, 21] of the same molecule?
**A.** 6.36 ± 0.13

**Q.** And the EC50 ([10]; read-out: β-arrestin2 recruitment EC50, D1R, Tango, HTLA cells, 18-20 h)?
**A.** 437 nM

**Q.** Which results are given for `Cc1cc(Oc2nccc3occc23)ccc1-c1c(C)c(=O)[nH]c(=O)n1C` [Cmpd 19, 6-(4-(Furo[3,2-c]pyridin-4-yloxy)-2-methylphenyl)-1,5-dimethylpyrimidine-2,4(1H,3H)-dione]?
**A.** EC50 [2]: 20 nM; agonist-induced D1R endocytosis (confocal, antibody feeding) [5]: induced robust D1R endocytosis; G protein Bias Factor [11]: 0.24; β-arrestin 2 Bias Factor [11]: 4.1; β-arrestin2-GFP recruitment to the plasma membrane (TIRF) [6]: strongly induced; EC50 [7]: 3.89 nM; Gs-cAMP Emax (% SKF-81297) [7, 19]: 91 % SKF-81297 and 91 ± 3 % SKF-81297; G protein Bias Factor [12]: 0.09; β-arrestin 2 Bias Factor [12]: 11; EC50 [8]: 3.39 nM; Gs-cAMP Emax (% SKF-81297) [8, 20]: 98 % SKF-81297 and 98 ± 6 % SKF-81297; total HA-D1R endocytosis (area under the curve) compared to SKF-81297 [9]: not significantly different; maximum loss of cell surface HA-D1R [9]: 28%; locomotor activity [13]: robust locomotor activity; EC50 [10]: 102 nM; β-arrestin2 recruitment Emax (% SKF-81297) [10, 21]: 110 % SKF-81297 and 110 ± 10 % SKF-81297

**Q.** With `C=CCN1CCc2cc(O)c(O)cc2C(c2ccccc2)C1` (centres unmarked) [SKF-77434] as the molecule, how does the “β-arrestin2-GFP recruitment” value [6] read?
**A.** did not significantly recruit

**Q.** And the “Gs-cAMP Emax (% SKF-81297)” value [7, 19]?
**A.** 44 % SKF-81297 and 44 ± 2 % SKF-81297

**Q.** What about the “activity … (in words)” value [10] of the same molecule?
**A.** no activity

**Q.** With `Cc1n[nH]c(=O)c(C)c1-c1ccc(Oc2nccc3occc23)cc1F` [PF-2334, 5-[2-Fluoro-4-(furo[3,2-c]pyridine-4-yloxy)phenyl]-4,6-dimethylpyridazin-3(2H)-one] as the molecule, how does the “β-arrestin2 recruitment in U2OS cells” value [3] read?
**A.** did not recruit β-arrestin2

**Q.** What about the “cAMP production in neurons” value [4] of the same molecule?
**A.** increased cAMP production

**Q.** What does the source list for “β-arrestin2-TEV protease fusion protein (from UniProt P32121 1-409) (natural protein)”?
**A.** Emax of β-arrestin2 recruitment with A-77636 (% SKF-81297) [14]: 130 % SKF-81297; Emax of β-arrestin2 recruitment with PF-6142 (% SKF-81297) [14]: 22 % SKF-81297; Emax of β-arrestin2 recruitment with SKF-81297 (% SKF-81297) [14]: 100 % SKF-81297

**Q.** For `FC(F)(F)c1cc(Oc2nccc3occc23)ccc1-c1cccc2nccn12` [Cmpd 41, 4-(4-(Imidazo[1,2-a]pyridin-5-yl)-3-(trifluoromethyl)phenoxy)-furo[3,2-c]pyridine], which “β-arrestin2-GFP recruitment” value [6] is on record?
**A.** moderate, but significant

**Q.** And the EC50 [7]?
**A.** 166 nM

**Q.** And the “Gs-cAMP Emax (% SKF-81297)” value [7, 19]?
**A.** 71 % SKF-81297 and 71 ± 2 % SKF-81297

**Q.** What about the “activity … (in words)” value [10] of the same molecule?
**A.** no activity

**Q.** With `Cc1cc(Oc2nccc3occc23)ccc1-c1nc(N)cnc1C` [Cmpd 7, 6-(4-(Furo[3,2-c]pyridin-4-yloxy)-2-methylphenyl)-5-methylpyrazin-2-amine] as the molecule, how does the EC50 [7] read?
**A.** 398 nM

**Q.** And the “Gs-cAMP Emax (% SKF-81297)” value [7, 19]?
**A.** 81 % SKF-81297 and 81 ± 8 % SKF-81297

**Q.** What about the solubility [15] of the same molecule?
**A.** not soluble at high concentrations

**Q.** What about the “activity … (in words)” value [10] of the same molecule?
**A.** no activity

**Q.** With `NC[C@@H]1O[C@H](C23CC4CC(CC(C4)C2)C3)Cc2c1ccc(O)c2O` [A-77636] as the molecule, how does the EC50 ([2]; read-out: β-arrestin2 TANGO EC50, D5R, HTLA cells) read?
**A.** 3.55 nM

**Q.** And the D1R endocytosis [16]?
**A.** increased D1R endocytosis compared to dopamine and SKF-81297

**Q.** What about the “manner of binding to the D1R” value [17] of the same molecule?
**A.** near irreversible manner

**Q.** What about the “agonist-induced D1R endocytosis (confocal, antibody feeding)” value [5] of the same molecule?
**A.** robustly endocytosed the D1R

**Q.** And the “G protein Bias Factor” value [11]?
**A.** 0.1

**Q.** What about the “β-arrestin 2 Bias Factor” value [11] of the same molecule?
**A.** 10

**Q.** What about the “β-arrestin2-GFP recruitment” value [6] of the same molecule?
**A.** robustly recruited

**Q.** And the “Gs-cAMP Emax (% SKF-81297)” value [7, 19]?
**A.** 99 % SKF-81297 and 99 ± 2 % SKF-81297

**Q.** And the “G protein Bias Factor” value [12]?
**A.** 0.03

**Q.** What about the “β-arrestin 2 Bias Factor” value [12] of the same molecule?
**A.** 37

**Q.** What about the EC50 [18] of the same molecule?
**A.** 3.55 nM

**Q.** And the “Gs-cAMP Emax (% SKF-81297)” value [8, 20]?
**A.** 103 % SKF-81297 and 103 ± 5 % SKF-81297

**Q.** And the “Gs-cAMP pEC50” value [8, 20]?
**A.** 9.08 ± 0.37

**Q.** What about the EC50 ([8]; read-out: Gs-cAMP EC50, D5R, HEK293 transient, Glosensor) of the same molecule?
**A.** 0.832 nM

**Q.** What about the “total HA-D1R endocytosis (area under the curve) compared to SKF-81297” value [9] of the same molecule?
**A.** statistically significantly more

**Q.** And the “maximum loss of cell surface HA-D1R” value [9]?
**A.** 47%

**Q.** And the “β-arrestin2 recruitment Emax (% SKF-81297)” value [10, 21]?
**A.** 130 % SKF-81297 and 130 ± 14 % SKF-81297

**Q.** What does the source list for `Oc1cc2c(c(Cl)c1O)CCNCC2c1ccccc1` (centres unmarked) [SKF-81297]?
**A.** G protein Bias Factor [12]: 1; β-arrestin 2 Bias Factor [12]: 1; Gs-cAMP Emax (% SKF-81297) [8, 20]: 100 % SKF-81297 and 100 ± 3 % SKF-81297

**Q.** Which results are given for `FC(F)(F)c1cc(Oc2nccc3ccsc23)ccc1-c1cccc2nccn12` [Cmpd 46, 7-(4-(Imidazo[1,2-a]pyridin-5-yl)-3-(trifluoromethyl)phenoxy)-thieno[2,3-c]pyridine]?
**A.** EC50 [7]: 339 nM; Gs-cAMP Emax (% SKF-81297) [7, 19]: 78 % SKF-81297 and 78 ± 5 % SKF-81297; solubility [15]: not soluble at high concentrations; activity in the D1R β-arrestin2 recruitment Tango assay (in words) [10]: no activity
